Test results as given in paper PMC10341549, “Inhibitory Investigations of Acyl-CoA Derivatives against Human Lipoxygenase Isozymes” (International Journal of Molecular Sciences, 2023).

Legend:
h15-LOX-2 = biological target: T1, h15-LOX-2 (Homo sapiens, UniProt O15296); test: IC50 determination against h15-LOX-2; type: biochemical; details: 10 μM AA, 25 mM HEPES pH 7.5, 0.01% Triton X-100, 22 °C
T1 construct: His tag; made in house
T1 sequence (O15296 1-676): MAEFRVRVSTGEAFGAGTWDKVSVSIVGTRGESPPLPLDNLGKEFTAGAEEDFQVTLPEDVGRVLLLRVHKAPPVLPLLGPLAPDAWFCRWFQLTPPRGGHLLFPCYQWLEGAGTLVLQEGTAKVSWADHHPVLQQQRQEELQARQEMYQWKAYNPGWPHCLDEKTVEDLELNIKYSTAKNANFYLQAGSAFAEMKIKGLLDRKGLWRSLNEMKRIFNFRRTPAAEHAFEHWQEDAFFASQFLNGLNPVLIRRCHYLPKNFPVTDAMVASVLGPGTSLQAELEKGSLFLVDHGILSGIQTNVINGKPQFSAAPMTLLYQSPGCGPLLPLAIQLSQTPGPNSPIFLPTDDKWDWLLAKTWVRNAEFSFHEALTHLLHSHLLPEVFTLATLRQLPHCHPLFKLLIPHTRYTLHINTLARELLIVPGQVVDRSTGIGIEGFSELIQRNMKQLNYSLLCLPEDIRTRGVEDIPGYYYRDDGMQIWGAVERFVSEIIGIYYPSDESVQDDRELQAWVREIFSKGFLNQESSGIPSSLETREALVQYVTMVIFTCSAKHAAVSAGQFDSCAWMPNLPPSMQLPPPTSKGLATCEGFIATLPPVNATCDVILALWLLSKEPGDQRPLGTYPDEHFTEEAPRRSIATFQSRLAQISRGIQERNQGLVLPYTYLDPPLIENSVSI
Protocol: (§1) Overexpression and purification of his-tagged wild-type h12-LOX (Uniprot entry P18054), h15-LOX-1 (Uniprot entry P16050), and h15-LOX-2 (Uniprot entry O15296) were performed using nickel-affinity chromatography. The purity of h12-LOX, h15-LOX-1, and h15-LOX-2 was assessed using SDS gel as greater than 85%, and metal content was assessed with a Finnigan inductively coupled plasma mass spectrometer (ICP-MS, Thermo Fischer Scientific, San Jose, USA) via comparison with iron standard solution. Cobalt-EDTA was used as an internal standard. WT h5-LOX (UniProt entry P09917) was expressed in Rosetta 2 cells (Novagen) transformed with the pET14b-Stable-5-LOX plasmid (a gift from Marcia Newcomer of Louisiana State University) and grown in Terrific Broth containing 34 μg/mL chloramphenicol and 100 μg/mL ampicillin at 37 °C for 3.5 h, then placed at 20 °C for an additional 26 h. Cells were pelleted and resuspended in 50 mM Tris (pH 8.0), 500 mM NaCl, 20 mM imidazole with 1 μM pepstatin, 100 μM PMSF, and DNaseI (Sigma, Kanagawa, Japan). The cells were lysed in a French pressure cell and centrifuged at 40,000× g for 20 min at 4 °C. Saturated ammonium sulfate was added to achieve a final solution of 10% and inverted several times. The lysate was centrifuged at 40,000× g for 10 min at 4 °C. The pellet was discarded, and the supernatant was increased to a final concentration of 50% ammonium sulfate. The supernatant was rotated for 10 min at 4 °C then centrifuged at 40,000× g for 10 min at 4 °C. The pellet was split into 150 mg aliquots. The WT h5-LOX used for the kinetics in this work was not purified due to a dramatic loss in activity and was therefore prepared as an ammonium-sulfate precipitate.
(§2) IC50 values for each acyl-CoA were measured against h5-LOX, h12-LOX, h15-LOX-1, and h15-LOX-2. The reactions were carried out in 25 mM HEPES buffer (pH 8.00), 0.01% Triton X-100, and 10 μM AA for h12-LOX; 25 mM HEPES buffer (pH 7.5), 0.01% Triton X-100, and 10 μM AA for h15-LOX-1 and h15-LOX-2; and 50 mM HEPES buffer (pH 7.5), 100 µM EDTA, 50 mM NaCl, 200 µM ATP, and 10 μM AA for h5-LOX. IC50 reactions were implemented with h15-LOX-1 (0.125 μM), h12-LOX (0.300 μM), h15-LOX-2 (0.5 μM), and h5-LOX (∼600 nM ammonium sulfate salt) at 22 °C in a 1 cm^2 quartz cuvette containing 2 mL of the according buffer and 10 μM AA for no longer than 2 min to avoid any cleavage of the acyl-coenzyme A. Inhibitor concentrations ranging from 50 μM to 0.01 μM were used. All reactions were conducted using a Cary-UV Vis spectrophotometer (Agilent, Santa Clara, CA, USA). The fastest rates over 15 s intervals were recorded. IC50 values were obtained by determining the percent of inhibition of the enzymatic rate at ten inhibitor concentrations and plotting the rate against the inhibitor concentration, followed by a hyperbolic saturation curve fit. The saturation curve fits were performed in duplicate or triplicate, depending on the quality of the data. […] Through HPLC monitoring, we were able to determine a lack of degradation of the fatty acyl-CoAs over the first hour.

h15-LOX-1 = biological target: T2, h15-LOX-1 (Homo sapiens, UniProt P16050); test: IC50 determination against h15-LOX-1; type: biochemical; details: 10 μM AA, 25 mM HEPES pH 7.5, 0.01% Triton X-100, 22 °C
T2 construct: His tag; made in house
T2 sequence (P16050 1-662): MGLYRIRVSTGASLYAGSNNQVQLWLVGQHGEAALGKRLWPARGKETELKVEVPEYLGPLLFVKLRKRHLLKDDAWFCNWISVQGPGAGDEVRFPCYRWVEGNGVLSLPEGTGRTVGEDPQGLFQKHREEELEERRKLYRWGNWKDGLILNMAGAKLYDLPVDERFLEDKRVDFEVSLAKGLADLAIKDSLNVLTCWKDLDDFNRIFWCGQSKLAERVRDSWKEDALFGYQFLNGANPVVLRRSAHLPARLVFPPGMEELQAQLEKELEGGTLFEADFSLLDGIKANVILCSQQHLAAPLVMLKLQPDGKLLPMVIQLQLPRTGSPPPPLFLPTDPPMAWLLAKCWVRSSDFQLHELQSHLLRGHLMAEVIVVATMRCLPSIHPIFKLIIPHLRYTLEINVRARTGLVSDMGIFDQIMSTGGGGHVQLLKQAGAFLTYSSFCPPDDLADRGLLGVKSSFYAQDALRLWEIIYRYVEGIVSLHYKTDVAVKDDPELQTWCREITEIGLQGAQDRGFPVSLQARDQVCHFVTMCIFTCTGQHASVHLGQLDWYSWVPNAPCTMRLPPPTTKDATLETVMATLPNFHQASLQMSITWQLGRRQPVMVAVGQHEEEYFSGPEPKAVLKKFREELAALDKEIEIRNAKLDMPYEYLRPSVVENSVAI
Protocol: as §1, §2

## CCCCC/C=C\C/C=C\C/C=C\C/C=C\CCCC(=O)SCCNC(=O)CCNC(=O)[C@H](O)C(C)(C)COP(=O)(O)OP(=O)(O)OC[C@H]1O[C@@H](n2cnc3c(N)ncnc32)[C@H](O)[C@@H]1OP(=O)(O)O [Arachidonoyl-CoA (20:4), arachidonoyl-coenzyme A (20:4)]
h15-LOX-2
  IC50: > 500 µM
h15-LOX-2; listed as arachidonoyl-CoA (20:4)
  IC50: > 100 µM
h15-LOX-1
  IC50: > 500 µM

## CC/C=C\C/C=C\C/C=C\C/C=C\C/C=C\C/C=C\CCC(=O)SCCNC(=O)CCNC(=O)C(O)C(C)(C)COP(=O)(O)OP(=O)(O)OC[C@H]1O[C@@H](n2cnc3c(N)ncnc32)[C@H](O)[C@@H]1OP(=O)(O)O (stereo partly shown) [Docosahexaenoyl CoA (22:6), docosahexaenoyl-coenzyme A (22:6)]
h15-LOX-2
  IC50: > 500 µM
h15-LOX-1
  IC50: > 500 µM

## CCCCC/C=C\C/C=C\CCCCCCCC(=O)SCCNC(=O)CCNC(=O)[C@H](O)C(C)(C)COP(=O)(O)OP(=O)(O)OC[C@H]1O[C@@H](n2cnc3c(N)ncnc32)[C@H](O)[C@@H]1OP(=O)(O)O [Linoleoyl-CoA (18:2), linoleoyl-CoA]
h15-LOX-2
  IC50: > 100 µM

## CCCCCCCC/C=C\CCCCCCCC(=O)SCCNC(=O)CCNC(=O)[C@H](O)C(C)(C)COP(=O)(O)OP(=O)(O)OC[C@H]1O[C@@H](n2cnc3c(N)ncnc32)[C@H](O)[C@@H]1OP(=O)(O)O [Oleoyl-CoA (18:1), oleoyl-coenzyme A (18:1)]
h15-LOX-2
  IC50: 0.62 ± 0.06 µM
h15-LOX-1
  IC50: 39 ± 2 µM

## CCCCCC/C=C\CCCCCCCC(=O)SCCNC(=O)CCNC(=O)[C@H](O)C(C)(C)COP(=O)(O)OP(=O)(O)OC[C@H]1O[C@@H](n2cnc3c(N)ncnc32)[C@H](O)[C@@H]1OP(=O)(O)O [Palmitoleoyl-CoA (16:1), palmitoleoyl-coenzyme A (16:1)]
h15-LOX-2
  IC50: > 200 µM
h15-LOX-2; listed as palmitoleoyl-CoA (16:1)
  IC50: > 100 µM
h15-LOX-1
  IC50: > 500 µM

## CCCCCCCCCCCCCCCC(=O)SCCNC(=O)CCNC(=O)[C@H](O)C(C)(C)COP(=O)(O)OP(=O)(O)OC[C@H]1O[C@@H](n2cnc3c(N)ncnc32)[C@H](O)[C@@H]1OP(=O)(O)O [Palmitoyl-CoA (16:0), palmitoyl-coenzyme A (16:0)]
h15-LOX-2
  IC50: > 200 µM
h15-LOX-2; listed as palmitoyl-CoA (16:0)
  IC50: > 100 µM
h15-LOX-1
  IC50: > 500 µM

## CCCCCCCCCCCCCCCCCC(=O)SCCNC(=O)CCNC(=O)[C@H](O)C(C)(C)COP(=O)(O)OP(=O)(O)OC[C@H]1O[C@@H](n2cnc3c(N)ncnc32)[C@H](O)[C@@H]1OP(=O)(O)O [Stearoyl-CoA (18:0), stearoyl-coenzyme A (18:0)]
h15-LOX-2
  IC50: 7.6 ± 1 µM
h15-LOX-1
  IC50: 4.2 ± 0.6 µM

## CCCCC/C=C\C/C=C\C/C=C\CCCCC(=O)SCCNC(=O)CCNC(=O)[C@H](O)C(C)(C)COP(=O)(O)OP(=O)(O)OC[C@H]1O[C@@H](n2cnc3c(N)ncnc32)[C@H](O)[C@@H]1OP(=O)(O)O [ɣ-Linolenoyl-CoA (18:3), ɣ-linolenoyl-coenzyme A (18:3)]
h15-LOX-2
  IC50: > 500 µM
h15-LOX-2; listed as ɣ-linolenoyl-CoA (18:3)
  IC50: > 100 µM
h15-LOX-1
  IC50: > 500 µM
